Read-outs that look alike come from different tables or passages of the source. Square brackets hold non-standard residues; d marks the D form. Peptide text beside a SMILES is read from it. * marks the point of attachment. Sta = CC(C)C[C@H](N)[C@@H](O)CC(=O)O; Isovaleryl = CC(C)CC(=O)*
Legend:
adult fleas = experiment: Flea feeding system: viability and fecundity of fleas fed blood containing protease inhibitors; assay type: in vivo; conditions: for reduction in adult viability: not statistically significant; for Adult Survival Female / Adult Survival Male / Adult Survival Total / Fecundity Days 1-7: percent of corresponding control group
Description: This Example evaluates the effect of a number of protease inhibitors on flea viability and fecundity in a flea feeding system as described by Wade et al. ibid.
Protease inhibitor compounds were tested in groups of 3 to 6 including appropriate control groups. Inhibitors were not tested in groups of common inhibition types. Rather, they were tested in groups based on the diluent needed to dissolve them. (AEBSF, aprotinin, bestatin, leupeptin, phosphoramidon, soybean trypsin inhibitor and soybean trypsin/chymotrypsin inhibitor were dissolved in water; E-64 and pepstatin were dissolved in ethanol). This reduced the number of control (diluent only) groups needed within a particular assay. Inhibitor concentrations were chosen such that the lower concentration used was within the range recommended by the supplier for that inhibitor. The higher concentration was typically 10 times above the lower concentration and was used to look for dose response.
The general protocol for all of the assays was as follows: Approximately 2000 newly emerged adult fleas were placed in feeding chambers to feed on normal blood for about 24 to 48 hr. The fleas were prefed for two reasons: The first was to be certain that only fleas that would feed in the feeding system were used in the comparative study.
The prefed fleas were placed in "minifeeder" feeding chambers at a ratio of about 80 female fleas to about 20 male fleas for a total of about 100 fleas per chamber. Actual total number of fleas per chamber varied from about 90 to 125 fleas. […] Three chambers were prepared for each experimental and control group. A fresh blood meal containing the appropriate inhibitor in 3 ml total volume was placed on each chamber daily through the 7 day extent of an assay.
On days 3, 5, and 7 of the assay, surviving adult fleas were transferred to clean chambers. The contents of the original chambers were dissolved in about 40 ml of PBS (phosphate-buffered saline) in a 50 ml Falcon tube. The contents of a given tube were then filtered through a preweighed #1 Whatman filter disk inserted into a vacuum filter. The 50 ml tube and the filter funnel were rinsed with distilled water which was then passed through the filter. Once the chamber contents had been filtered, dead adult fleas were removed from the filter paper and placed in a labelled tube so that they could be counted and sexed. The filter paper was then placed into a preweighed 12×75 polypropylene tube and dried in the SpeedVac for 2.5 hr with the heater on. After drying the filter paper was weighed. The weight of the filter paper and tube was subtracted to obtain the dry weight of the eggs and this value was converted to an estimated number of eggs using the formula y=41384.361x+162.37, where x=dry weight of eggs.
On day 7, adult fleas that had survived the study were frozen, counted and sexed. The numbers were added to the number of male and female fleas that had died during the assay to verify the number of male and female fleas in each chamber at the start of the study.
Female, male and total adult flea survival were calculated for all experimental and control groups on days 3, 5, and 7 of each assay. Additionally, the number of eggs per surviving female was calculated on days 3, 5 and 7. Female fleas found dead on a given collection date were included in the total number of egg-laying females for the days between that date and the previous collection date, providing a conservative estimate of fecundity. Fecundity values were averaged for the three collection dates to obtain an average for each group over 7 days.
Results of these studies are presented below in Table 1 and FIG. 6 through FIG. 9. All survival and fecundity values are presented below as a percent of control value.

flea aminopeptidase = experiment: Leu-AMC cleavage by serine protease-depleted flea midgut lysate; assay type: biochemical
Description: The starting material for the isolation of a flea aminopeptidase was a flea midgut lysate preparation that had been depleted of serine proteases by passage over a benzamidine-Sepharose affinity column. To assay for aminopeptidase activity, the synthetic substrate L-Leucine-AMC (Leu-AMC), which releases a fluorescent AMC leaving group upon proteolytic cleavage, was incubated with the serine protease-depleted flea midgut preparation. Aminopeptidase activity was easily detectable with as little as 1.2 μg of lysate, both confirming the presence of an aminopeptidase (as indicated in other Examples herein) and allowing for the detection of aminopeptidase activity in fractions collected throughout subsequent fractionation and purification procedures.

flea midgut proteases = experiment: Protease substrate gel analysis of flea midguts with protease inhibitors in the incubation buffers; assay type: biochemical; conditions: unfed and fed female midguts; AEBSF 1 mM, soybean trypsin inhibitor 100 μg/ml, leupeptin 10 μg/ml in all incubation buffers
Description: Protease substrate gels (available from Novex, San Diego, Calif., as Novex Zymogels) were 10% polyacrylamide-SDS gels with 0.1% gelatin. Samples and gels were processed according to Novex instructions. Briefly, samples were diluted in SDS-PAGE sample buffer without reducing agents. Tris-glycine SDS-PAGE was carried out by standard procedures. After electrophoresis, gels were incubated in 0.25% Triton X-100 at room temperature for 30 minutes (min), then in developing buffer (50 mM (millimolar) Tris-HCl pH 7.0, 5 mM CaCl2, 0.02% Brij 35, 0.2 M (molar) NaCl) at room temperature for 30 min, and then incubated with fresh developing buffer at 37° C., usually overnight. Gels were then stained 30 min in 0.5% coomassie R-250, 40% methanol, 10% acetic acid and destained in 40% methanol, 10% acetic acid.
Three unfed female midguts and 0.75 fed female midguts were evaluated in duplicate in several protease substrate gels. Each gel was cut in half. Half was processed as described in Example 2, while the other half contained protease inhibitors in all incubation buffers. The following inhibitors were evaluated:
Mixed-sex fed flea midguts were processed as described in U.S. Pat. No. 5,356,622, ibid. Aliquots of several steps of the procedure were evaluated by loading an equivalent of 0.4 midguts per lane of a protease substrate gel as described in Example 2. Samples were from the low speed supernatant (lanes 2 and 9), sonicated midguts (lanes 3 and 10), high speed supernatant (lanes 4 and 11), combined low and high speed supernatants (FGS) (lanes 5 and 12) and the high speed pellet (lanes 6 and 13). Lanes 7 and 8 contained 50 nanograms (ng) of trypsin as a control. Duplicate lanes were evaluated. The gel was cut in half, and lanes 1-7 were processed as described in Example 2, and lanes 8-14 were processed with 100 μg/ml soybean trypsin inhibitor in all the incubation buffers.

[1] = at the concentrations tested in blood meal
[2] = 1 μg/ml in blood meal, second 1 μg/ml line under E-64
[3] = 10 μg/ml in blood meal, second 10 μg/ml line under E-64
[4] = 1 mM pefabloc, 1 mg/ml trypsin/chymotrypsin inhibitor, 1 mg/ml trypsin inhibitor, 1 mM TPCK, 1 μg/ml pepstatin, 10 μg/ml E-64, 10 μg/ml leupeptin, 10 mM EDTA, 86 μg/ml bestatin, lysate about 1.2 μg and about 12 μg

CC(=O)N[C@@H](CC(C)C)C(=O)N[C@@H](CC(C)C)C(=O)N[C@H](C=O)CCCNC(=N)N [Leupeptin]
reduction in adult viability (adult fleas; 5 μg/ml in blood meal): 30%
Adult Survival Female (adult fleas; 5 μg/ml in blood meal): 71.0%
Adult Survival Male (adult fleas; 5 μg/ml in blood meal): 61.4%
Adult Survival Total (adult fleas; 5 μg/ml in blood meal): 68.4%
Fecundity Days 1-7 (adult fleas; 5 μg/ml in blood meal): 85.0%
effect on adult viability (adult fleas; 50 μg/ml in blood meal): not affected
Fecundity Days 1-7 (adult fleas; 50 μg/ml in blood meal): 77.6%
effect on fecundity (adult fleas; [1]): no effect on fecundity
inhibition of the flea protease that cleaved Leu-AMC (flea aminopeptidase): Only bestatin inhibited
effect on protease activity in protease substrate gel (flea midgut proteases): only inhibitors to have any effect

CC(C)CC(NC(=O)C1OC1C(=O)O)C(=O)NCCCCNC(=N)N [E-64, trans-epoxysuccinyl-L-leucylamido-(4-guanidino)butane]
Adult Survival Female (adult fleas; [2]): 77.3%
Adult Survival Male (adult fleas; [2]): 80.0%
Adult Survival Total (adult fleas; [2]): 77.5%
Fecundity Days 1-7 (adult fleas; [2]): 95.2%
Adult Survival Female (adult fleas; 1 μg/ml in blood meal): 99.9%
Fecundity Days 1-7 (adult fleas; 1 μg/ml in blood meal): 109.4%
Adult Survival Female (adult fleas; [3]): 90.2%
Adult Survival Male (adult fleas; [3]): 91.1%
Adult Survival Total (adult fleas; [3]): 90.6%
Fecundity Days 1-7 (adult fleas; [3]): 84.1%
Fecundity Days 1-7 (adult fleas; 10 μg/ml in blood meal): 177.4%
effect on fecundity (adult fleas; [1]): no statistically significant reduction in fecundity
total adult flea survival (adult fleas; dissolved in grain alcohol, 1 μg/ml in blood): small, but significant (p<0.05), reduction
total adult flea survival (adult fleas; in grain alcohol, 10 μg/ml in blood): not evident
inhibition of the flea protease that cleaved Leu-AMC (flea aminopeptidase; [4]): Only bestatin inhibited

Cl.NCCc1ccc(S(=O)(=O)F)cc1 [pefabloc]
inhibition of the flea protease that cleaved Leu-AMC (flea aminopeptidase; [4]): Only bestatin inhibited

Cl.NCCc1ccc(S(=O)(=O)F)cc1 [AEBSF, 4-2-aminoethyl-benzenesulfonylfluoride-hydrochloride]
Fecundity Days 1-7 (adult fleas; 0.3 mM in blood meal): 82.4%
Fecundity Days 1-7 (adult fleas; 0.5 mM in blood meal): 95.0%
Adult Survival Female (adult fleas; 5.0 mM in blood meal): 6.8%
Adult Survival Male (adult fleas; 5.0 mM in blood meal): 0.0%
Adult Survival Total (adult fleas; 5.0 mM in blood meal): 5.6%
Fecundity Days 1-7 (adult fleas; 5.0 mM in blood meal): 1.4%
Adult Survival Female (adult fleas; 6.0 mM in blood meal): 4.1%
Adult Survival Male (adult fleas; 6.0 mM in blood meal): 0.0%
Adult Survival Total (adult fleas; 6.0 mM in blood meal): 3.4%
Fecundity Days 1-7 (adult fleas; 6.0 mM in blood meal): 17.2%
reduction in flea fecundity (adult fleas; about 5 mM to about 6 mM in blood meal): more than 80%
adult survival (adult fleas; about 5 mM to about 6 mM in blood meal, p<0.05): reduced to near zero
effect on protease activity in protease substrate gel (flea midgut proteases): only inhibitors to have any effect

CC(C)C[C@H](NP(=O)(O)O[C@@H]1O[C@@H](C)[C@H](O)[C@@H](O)[C@H]1O)C(=O)N[C@@H](Cc1c[nH]c2ccccc12)C(=O)O [Phosphoramidon]
Adult Survival Female (adult fleas; 10 μg/ml in blood meal): 98.8%
Adult Survival Male (adult fleas; 10 μg/ml in blood meal): 95.2%
Adult Survival Total (adult fleas; 10 μg/ml in blood meal): 97.8%
Fecundity Days 1-7 (adult fleas; 10 μg/ml in blood meal): 89.0%
Adult Survival Female (adult fleas; 100 μg/ml in blood meal): 70.2%
Adult Survival Male (adult fleas; 100 μg/ml in blood meal): 64.6%
Adult Survival Total (adult fleas; 100 μg/ml in blood meal): 69.7%
Fecundity Days 1-7 (adult fleas; 100 μg/ml in blood meal): 84.9%
effect on fecundity (adult fleas; [1]): no significant reduction in fecundity
reduction in adult viability (adult fleas; concentration not given): about 30%

Cc1ccc(S(=O)(=O)N[C@@H](Cc2ccccc2)C(=O)CCl)cc1 [TPCK, N-tosyl-L-phenylalanine chloromethyl ketone]
inhibition of the flea protease that cleaved Leu-AMC (flea aminopeptidase; [4]): Only bestatin inhibited

CC(C)CC(=O)N[C@H](C(=O)N[C@H](C(=O)N[C@@H](CC(C)C)[C@@H](O)CC(=O)N[C@@H](C)C(=O)N[C@@H](CC(C)C)[C@@H](O)CC(=O)O)C(C)C)C(C)C [Pepstatin A] (Isovaleryl-VV[Sta]A[Sta]-OH)
Adult Survival Female (adult fleas; 1 μg/ml in blood meal): 77.6%
Adult Survival Male (adult fleas; 1 μg/ml in blood meal): 96.6%
Adult Survival Total (adult fleas; 1 μg/ml in blood meal): 80.5%
Fecundity Days 1-7 (adult fleas; 1 μg/ml in blood meal): 67.7%
reduction in fecundity (adult fleas; 1 μg/ml in blood meal, significant (p<0.05)): 32%
Fecundity Days 1-7 (adult fleas; 10 μg/ml in blood meal): 83.9%
effect on adult viability (adult fleas; [1]): no significant effect on adult viability
inhibition of the flea protease that cleaved Leu-AMC (flea aminopeptidase): Only bestatin inhibited
